Laboratory results from US8592174B2, “Peptidase substrates” (bioMérieux, S.A., priority 2009, dated 2013).

What was measured:
[1] = tested on: Staphylococcus aureus NCTC 11 939; assay: Peptidase detection on Columbia medium (Example 2); assay type: cell-based; design: key to Growth: NG: No growth; 0.5: weak growth; 1: moderate growth; 2: good growth; key to Fluo. / Color / Color post-acid.: —: no color; conditions: 40 mg in 400 ml Columbia, 24 h 37° C.
[2] = tested on: Providencia rettgeri NCTC 7 475; assay: Peptidase detection on Columbia medium (Example 2); assay type: cell-based; design: key to Growth: NG: No growth; 0.5: weak growth; 1: moderate growth; 2: good growth; conditions: 40 mg in 400 ml Columbia, 24 h 37° C.
[3] = tested on: Serratia marcescens NCTC 10 211; assay: Peptidase detection on Columbia medium (Example 2); assay type: cell-based; design: key to Growth: NG: No growth; 0.5: weak growth; 1: moderate growth; 2: good growth; conditions: 40 mg in 400 ml Columbia, 24 h 37° C.
[4] = tested on: Pseudomonas aeruginosa NCTC 10 662; assay: Peptidase detection on Columbia medium (Example 2); assay type: cell-based; design: key to Growth: NG: No growth; 0.5: weak growth; 1: moderate growth; 2: good growth; conditions: 40 mg in 400 ml Columbia, 24 h 37° C.
[5] = tested on: Candida glabrata NCPF 3 943; assay: Peptidase detection on Columbia medium (Example 2); assay type: cell-based; design: key to Growth: NG: No growth; 0.5: weak growth; 1: moderate growth; 2: good growth; key to Fluo. / Color / Color post-acid.: —: no color; conditions: 40 mg in 400 ml Columbia, 24 h 37° C.
[6] = tested on: Salmonella typhimurium NCTC 74; assay: Peptidase detection on Columbia medium (Example 2); assay type: cell-based; design: key to Growth: NG: No growth; 0.5: weak growth; 1: moderate growth; 2: good growth; conditions: 40 mg in 400 ml Columbia, 24 h 37° C.
[7] = tested on: Enterococcus faecium NCTC 7 171; assay: Peptidase detection on Columbia medium (Example 2); assay type: cell-based; design: key to Growth: NG: No growth; 0.5: weak growth; 1: moderate growth; 2: good growth; key to Fluo. / Color / Color post-acid.: —: no color; conditions: 40 mg in 400 ml Columbia, 24 h 37° C.
[8] = tested on: Bacillus subtilis NCTC 9 372; assay: Peptidase detection on Columbia medium (Example 2); assay type: cell-based; design: key to Growth: NG: No growth; 0.5: weak growth; 1: moderate growth; 2: good growth; key to Fluo. / Color / Color post-acid.: —: no color; conditions: 40 mg in 400 ml Columbia, 24 h 37° C.
[9] = tested on: Enterococcus faecalis NCTC 775; assay: Peptidase detection on Columbia medium (Example 2); assay type: cell-based; design: key to Growth: NG: No growth; 0.5: weak growth; 1: moderate growth; 2: good growth; key to Fluo. / Color / Color post-acid.: —: no color; conditions: 40 mg in 400 ml Columbia, 24 h 37° C.
[10] = tested on: Gram-negative bacteria, Gram-positive bacteria, yeasts; conditions: conclusion of Example 2
Protocol: 40 mg of each of the substrates were dissolved in 4 ml of dimethyl sulfoxide (80 mg for Asn-ASQM^+) and added to 400 ml of previously autoclaved Columbia medium. The 6 media were distributed into Petri dishes 90 mm in diameter, in a proportion of 20 ml per dish.
Seventeen strains of microorganisms stemming from collections and belonging to various species of bacteria and yeasts are inoculated in spots of approximately 10 000 colony-forming units.
The media are incubated for 24 hours at 37° C., and then the colonies formed are examined visually, with or without the addition of acid and under a UV lamp at 365 nm.

[11] = tested on: Listeria monocytogenes NCTC 11 994; assay: Peptidase detection on Columbia medium (Example 2); assay type: cell-based; design: key to Growth: NG: No growth; 0.5: weak growth; 1: moderate growth; 2: good growth; key to Fluo. / Color / Color post-acid.: —: no color; conditions: 40 mg in 400 ml Columbia, 24 h 37° C.
[12] = tested on: Candida albicans ATCC 90 028; assay: Peptidase detection on Columbia medium (Example 2); assay type: cell-based; design: key to Growth: NG: No growth; 0.5: weak growth; 1: moderate growth; 2: good growth; key to Fluo. / Color / Color post-acid.: —: no color; conditions: 40 mg in 400 ml Columbia, 24 h 37° C.
[13] = tested on: Staphylococcus aureus NCTC 6 571; assay: Peptidase detection on Columbia medium (Example 2); assay type: cell-based; design: key to Growth: NG: No growth; 0.5: weak growth; 1: moderate growth; 2: good growth; key to Fluo. / Color / Color post-acid.: —: no color; conditions: 40 mg in 400 ml Columbia, 24 h 37° C.
[14] = tested on: Escherichia coli NCTC 10 418; assay: Peptidase detection on Columbia medium (Example 2); assay type: cell-based; design: key to Growth: NG: No growth; 0.5: weak growth; 1: moderate growth; 2: good growth; conditions: 40 mg in 400 ml Columbia, 24 h 37° C.
[15] = tested on: Enterobacter cloacae NCTC 11 936; assay: Peptidase detection on Columbia medium (Example 2); assay type: cell-based; design: key to Growth: NG: No growth; 0.5: weak growth; 1: moderate growth; 2: good growth; conditions: 40 mg in 400 ml Columbia, 24 h 37° C.
[16] = tested on: Staphylococcus epidermidis NCTC 11 047; assay: Peptidase detection on Columbia medium (Example 2); assay type: cell-based; design: key to Growth: NG: No growth; 0.5: weak growth; 1: moderate growth; 2: good growth; key to Fluo. / Color / Color post-acid.: —: no color; conditions: 40 mg in 400 ml Columbia, 24 h 37° C.
[17] = tested on: Yersinia enterocolitica NCTC 11 176; assay: Peptidase detection on Columbia medium (Example 2); assay type: cell-based; design: key to Growth: NG: No growth; 0.5: weak growth; 1: moderate growth; 2: good growth; conditions: 40 mg in 400 ml Columbia, 24 h 37° C.
[18] = tested on: Streptococcus pyogenes NCTC 8 306; assay: Peptidase detection on Columbia medium (Example 2); assay type: cell-based; design: key to Growth: NG: No growth; 0.5: weak growth; 1: moderate growth; 2: good growth; key to Fluo. / Color / Color post-acid.: —: no color; conditions: 40 mg in 400 ml Columbia, 24 h 37° C.

Compound: NCCC(=O)Nc1ccc(C=Cc2ccc3ccccc3n2)cc1 [β-Ala-ASQ, β-alanyl-2-(4′-amidostyryl)quinoline]
- Color [1]: —
- Growth [1]: NG
- Fluo. ([1]; UV lamp 365 nm): —
- Color post-acid. ([1]; addition of acid): —
- Growth [2]: 2
- Color post-acid. ([2]; addition of acid): Pale yellow
- Growth [3]: 2
- Fluo. ([3]; UV lamp 365 nm): Green
- Color post-acid. ([3]; addition of acid): Orange
- Growth [4]: 2
- Fluo. ([4]; UV lamp 365 nm): Green
- Color post-acid. ([4]; addition of acid): Orange
- Color [5]: —
- Growth [5]: NG
- Fluo. ([5]; UV lamp 365 nm): —
- Color post-acid. ([5]; addition of acid): —
- Growth [6]: 2
- Color post-acid. ([6]; addition of acid): Pale yellow
- Color [7]: —
- Growth [7]: NG
- Fluo. ([7]; UV lamp 365 nm): —
- Color post-acid. ([7]; addition of acid): —
- Color [8]: —
- Growth [8]: NG
- Fluo. ([8]; UV lamp 365 nm): —
- Color post-acid. ([8]; addition of acid): —
- Color [9]: —
- Growth [9]: NG
- Fluo. ([9]; UV lamp 365 nm): —
- Color post-acid. ([9]; addition of acid): —
- toxicity / growth of microorganisms [10]: toxic with respect to certain groups
- Color [11]: —
- Growth [11]: NG
- Fluo. ([11]; UV lamp 365 nm): —
- Color post-acid. ([11]; addition of acid): —
- Color [12]: —
- Growth [12]: NG
- Fluo. ([12]; UV lamp 365 nm): —
- Color post-acid. ([12]; addition of acid): —
- Color [13]: —
- Growth [13]: NG
- Fluo. ([13]; UV lamp 365 nm): —
- Color post-acid. ([13]; addition of acid): —
- Growth [14]: 2
- Color post-acid. ([14]; addition of acid): Pale yellow
- Growth [15]: 2
- Color post-acid. ([15]; addition of acid): Pale yellow
- Color [16]: —
- Growth [16]: NG
- Fluo. ([16]; UV lamp 365 nm): —
- Color post-acid. ([16]; addition of acid): —
- Growth [17]: 2
- Color post-acid. ([17]; addition of acid): Pale yellow
- Color [18]: —
- Growth [18]: NG
- Fluo. ([18]; UV lamp 365 nm): —
- Color post-acid. ([18]; addition of acid): —
